Assay results as given in US20120016119A1, “NOVEL PYRROLO(2,3-d)PYRIMIDINE COMPOUND” (priority 2009, published 2012).

Columns and labels:
human GPR119 = molecular target: T1, human GPR119 (Homo sapiens, UniProt Q8TDV5); experiment: GPR119 agonistic activity: cAMP production in human GPR119-expressed CHO cells (HTRF cAMP kit); type: cell-based; conditions: human GPR119-expressed CHO cells (L8-18), 37° C. for 30 minutes, 500 μM IBMX
T1 construct: expressed in transfected cells; host or cells: CHO cells (LM-3 mock cells carrying luciferase reporter pLG3-CRE6-CRE-VIP); resulting line L8-18
T1 sequence (Q8TDV5 1-335): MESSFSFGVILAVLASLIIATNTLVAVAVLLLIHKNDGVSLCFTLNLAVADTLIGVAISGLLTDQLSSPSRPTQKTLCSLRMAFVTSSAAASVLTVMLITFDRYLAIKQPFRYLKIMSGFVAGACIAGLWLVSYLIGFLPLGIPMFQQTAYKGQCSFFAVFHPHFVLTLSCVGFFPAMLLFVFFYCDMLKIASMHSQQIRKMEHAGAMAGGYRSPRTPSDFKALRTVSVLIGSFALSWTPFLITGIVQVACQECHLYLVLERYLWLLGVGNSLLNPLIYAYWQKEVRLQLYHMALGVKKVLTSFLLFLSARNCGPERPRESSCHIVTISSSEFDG
Experimental: The present experiment is directed to evaluate GPR119 agonistic activity (in vitro) of test compounds by adding the compounds to human GPR119-expressed CHO cells to determine cAMP production of the cells.
Human GPR119-expressed CHO cells (L8-18) were prepared by introducing an expression vector pMSF1-GPR119 (Geneticin-resistance) carrying human GPR119 genes into CHO cells (LM-3; Mock cells) wherein lusiferase expression vector pLG3-CRE6-CRE-VIP (Hygromycin B-resistance) were introduced according to the known method (The Journal of Biological Chemistry Vol. 274 (34), pp. 23940-23947).
Cryopreserved L8-18 cells were melted, and then suspended into 9-fold amounts of assay buffer and centrifuged (1000 rpm, 5 minutes) at room temperature. The supernatant was removed, and then the precipitated cells were resuspended into assay buffer (4 mL). Thereto was added assay buffer which contained IBMX (manufactured by Sigma, #17018-1G), and 7.5×10^4 cells/mL of cell suspension was prepared. The cell suspension was let stand at room temperature for 15 minutes, and then to each well of 96 half well white plate (manufactured by Corning Incorporated, #3693) were added the cell suspension (20 μL) and a solution of a test compound or AR231453 (5 μL; a total of 25 (final concentration: 1500 cells/well, 500 μM IBMX, 1% dimethylsulfoxide). The mixture was incubated at 37° C. for 30 minutes, and then to each well were added a 20-fold diluted solution (each 12.5 μL/well) of cAMP-d2 and Anti cAMP-Cryptate of HTRF cAMP kit (manufactured by Cisbio, #62AM4PEC). The mixture was stirred, and then was let stand for 1 hour under light shielding. A fluorescence intensity was measured by time-resolved fluorescence mode (Ex: 320 nm, Em: 665 nm, 620 nm) of Microplate Reader (ARVO or SpectraMax M5e). In ARVO, Ratios [Ratio=(665 nm/620 nm)×10^4)] of cAMP-d2 to Anti cAMP-Cryptate were calculated from the resulting fluorescence intensity, and cAMP concentrations of each well were calculated from cAMP standard curve prepared by the Ratios and GraphPad Prism. In SpectraMax M5e, cAMP concentrations of each well were calculated on the basis of a standard curve prepared by the resulting fluorescence intensity and Softmax Pro.
EC50 of test compounds were calculated by GraphPad Prism.

C57BL/6N male mice = experiment: Inhibitory effect on increased blood glucose after oral glucose load in fasted mice; type: in vivo; conditions: one hour before glucose load (3 g/kg, p.o.), C57BL/6N male mice fasted 21 hours
Experimental: C57BL/6N male mice was fasted for 21 hours, and then a stratified randomization allocation was carried out by EXSUS Ver7.6 NP (Arm Systex Co., Ltd.) based on body weights (n=8). Vehicle (solvent: 0.1% Tween 80/0.5% hydroxypropyl methylcellulose) (control group) or a suspended solution of a test compound in the vehicle (test compound group) was orally administered to the mice, and a glucose load (3 g/kg, p.o.) was carried out one hour after administration of a test compound. Blood samplings from the test mice were carried out at each time point of just before administration of drug (−60 min), immediately before glucose load (0 min), 30 minutes (30 min), 60 minutes (60 min) and 120 minutes (120 min) after glucose load. Blood glucose levels at each time point were measured by glucose CII-Test Wako (manufactured by Wako Pure Chemical Industries, Ltd.), AUC (0-120 min) was calculated in each administration group on the basis of the measured value, and evaluated by time-dependent variance analysis and Student's t-Test using EXSUS Ver7.6NP (Arm Systex Co., Ltd.).
An inhibitory effect on increased blood glucose of each test compound (A ratio value of AUC (0-120 min) of the test compound group in case that AUC (0-120 min) of the control group is 100) is shown in the following Table 36.

| EC50 (human GPR119) [µM] | Compound | Inhibitory Effect on Increased Blood Glucose (ratio value of AUC (0-120 min) of test compound group, control group = 100) (C57BL/6N male mice; 10 mg/kg orally) | Inhibitory Effect on Increased Blood Glucose (ratio value of AUC (0-120 min) of test compound group, control group = 100) (C57BL/6N male mice; 3 mg/kg orally) | further results |
| --- | --- | --- | --- | --- |
| < 1 | CCc1cnc(N2CCC(n3cc(F)c4c(Nc5ccc(C(=O)N6CC[C@@H](O)C6)cc5F)ncnc43)CC2)nc1 [Example Compound 61] | 85 | – | – |
| – | CN(CCO)C(=O)c1ccc(Nc2ncnc3c2c(F)cn3C2CCN(c3ncc(C4CC4)cn3)CC2)c(F)c1 [Example Compound 129] | – | 88 | – |
| – | CCc1cnc(N2CCC(n3cc(F)c4c(Nc5ccc(C(=O)N6CC[C@@H](O)C6)cc5Cl)ncnc43)CC2)nc1 [Example Compound 185] | – | – | Inhibitory Effect on Increased Blood Glucose (ratio value of AUC (0-120 min) of test compound group, control group = 100) (C57BL/6N male mice; 1 mg/kg orally): 89 |
| – | CC(C)c1cnc(N2CCC(n3cc(F)c4c(Nc5ccc(C(=O)N6CCC[C@@H](O)C6)cc5F)ncnc43)CC2)nc1 [Example Compound 132] | – | 90 | – |
| < 1 | CCc1cnc(N2CCC(n3cc(F)c4c(Nc5ccc(C(=O)N(C)C)cc5Cl)ncnc43)CC2)nc1 [Example Compound 29] | 88 | – | – |
| – | CC(C)OC(=O)N1CCC(n2cc(F)c3c(Nc4ccc(C(=O)N5CCCC5)cc4F)ncnc32)CC1 [Example Compound 163] | – | 86 | – |
| – | CCc1cnc(N2CCC(n3cc(F)c4c(Nc5ccc(C(=O)N(C)CCO)cc5F)ncnc43)CC2)nc1 [Example Compound 8, 4-[7-[1-(5-ethylpyrimidin-2-yl)piperidin-4-yl]-5-fluoro-7H-pyrrolo[2,3-d]pyrimidin-4-ylamino]-3-fluoro-N-(2-hydroxyethyl)-N-methylbenzamide] | 83 | – | – |
| – | O=C(c1ccc(Nc2ncnc3c2c(F)cn3C2CCN(c3ncc(C4CC4)cn3)CC2)c(F)c1)N1CC[C@@H](O)C1 [Example Compound 128] | – | 83 | – |
| < 1 | CCc1cnc(N2CCC(n3cc(F)c4c(Nc5ccc(C(=O)N6CC[C@H](O)C6)cc5F)ncnc43)CC2)nc1 [Example Compound 62] | 86 | – | – |
| < 1 | CCc1cnc(N2CCC(n3cc(F)c4c(Nc5ccc(C(=O)N(C)CCCO)cc5F)ncnc43)CC2)nc1 [Example Compound 63] | 89 | – | – |
| < 1 | CC(C)Oc1cnc(N2CCC(n3cc(F)c4c(Nc5ccc(C(=O)N(C)CCO)cc5F)ncnc43)CC2)nc1 [Example Compound 153] | – | 84 | – |
| – | O=C(c1ccc(Nc2ncnc3c2c(F)cn3C2CCN(c3noc(C(F)(F)F)n3)CC2)c(F)c1)N1CC[C@@H](O)C1 [Example Compound 178] | – | – | Inhibitory Effect on Increased Blood Glucose (ratio value of AUC (0-120 min) of test compound group, control group = 100) (C57BL/6N male mice; 1 mg/kg orally): 88 |
| – | CC(C)c1noc(N2CCC(n3cc(F)c4c(Nc5ccc(C(=O)N6CCCC6)cc5F)ncnc43)CC2)n1 [Example Compound 161] | – | 87 | – |
| – | CCCc1cnc(N2CCC(n3cc(F)c4c(Nc5ccc(C(=O)N6CC[C@@H](O)C6)cc5F)ncnc43)CC2)nc1 [Example Compound 121] | – | 82 | – |
